Experimental data from patent US8530652B2, “Pyrrolopyrazoles, potent kinase inhibitors” (Agouron Pharmaceuticals, Inc., priority 2005, dated 2013).

Tests used:
[1] = molecular target: PAK4 kinase activity in whole cells (TR-293-KDG, modified HEK 293 overexpressing GEF-H1b and PAK4 KD) (Homo sapiens (Human), UniProt O96013); experiment: PAK4 cellular assay: sandwich ELISA of PAK4-dependent phosphorylation of GEF-H1b in TR-293-KDG cells; format: cell-based; settings: doxycycline-induced, 3-hour exposure, phospho-GEF-H1b ELISA
Sequence of PAK4 kinase activity in whole cells (TR-293-KDG, modified HEK 293 overexpressing GEF-H1b and PAK4 KD) (O96013 321-572): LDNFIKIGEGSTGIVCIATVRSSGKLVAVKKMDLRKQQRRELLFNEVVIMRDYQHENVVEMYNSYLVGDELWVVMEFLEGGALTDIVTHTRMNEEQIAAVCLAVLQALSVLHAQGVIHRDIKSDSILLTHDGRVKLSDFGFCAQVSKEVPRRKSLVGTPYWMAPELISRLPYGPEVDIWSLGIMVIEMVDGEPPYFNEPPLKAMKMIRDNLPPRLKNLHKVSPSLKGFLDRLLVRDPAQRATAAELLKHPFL
Description: A sandwich ELISA method was used to measure the PAK4 kinase activity in whole cells. The level of PAK4-dependent phosphorylation of GEF-H1b can be determined by monitoring the binding of a phosphospecific antibody to GEF-H1b. A modified HEK 293 cell line is used in the bioassay and it has been engineered to overexpress both GEF-H1b and the kinase domain (KD) of PAK4. The KD of PAK4 is inducible in this cell line by tetracycline (Trex system, Invitrogen). The name of this cell line has been designated TR-293-KDG. To establish a phosphorylation event on GEF-H1, cells are induced with doxycycline to express the PAK4 KD. […] Candidate substance effect is measured as the ability to block this phosphorylation event.
ELISA plate was prepared by pre-coating the plates with a capture antibody (α-HA-tag mouse monoclonal antibody), blocked with BSA, and washed in 0.1% tween 20 in tris-buffered saline (TBST). Tissue culture plates (precoated with poly-D-lysine) were seeded with TR-293-KDG cells. The TR-293-KDG Cells were induced to express the PAK4 KD with doxycycline overnight and subsequently & concomitantly treated with candidate substances or diluent for an additional 3-hour, continuous exposure. Cells were then lysed with a modified RIPA buffer supplemented with protease inhibitors. The fresh whole cell lysates were then added to the ELISA plate for 2-hours. Between all subsequent steps plates were washed 4 times with TBST. Detection antibody (recognizing the phospho-specific eptitope on GEF-H1b) was added for 1 hour, followed by addition of an enzyme linked goat α-rabbit secondary antibody for 45 minutes. […] EC50 values were calculated by sigmoid curve fitting using a four-parameter analysis.

[2] = molecular target: PAK4 kinase domain (PAK4 KD) (Homo sapiens (Human), UniProt O96013); experiment: PAK4 kinase domain enzymatic assay (coupled PK/LDH, NADH absorbance at 340 nm); format: biochemical; settings: PAK4 kinase domain, 25 nM PAK4 KD, 0.04 mM ATP, pH 7.5
Sequence of PAK4 kinase domain (PAK4 KD) (O96013 321-572): as above

EC50 [1] [nM] | Ki [2] [nM] | Compound
2.4 | 170 | CCOc1ncc(F)c(Nc2n[nH]c3c2CN(C(=O)N[C@H](CN(C)C)c2ccccc2)C3(C)C)n1 [Example 59, N-[(1S)-2-(dimethylamino)-1-phenylethyl]-3-[(2-ethoxy-5-fluoropyrimidin-4-yl)amino]-6,6-dimethyl-4,6-dihydropyrrolo[3,4-c]pyrazole-5(1H)-carboxamide]
< 3.9 | 40 | CN(C)C[C@@H](NC(=O)N1Cc2c(Nc3ccnc(C#N)n3)n[nH]c2C1(C)C)c1ccccc1 [Example 60, 3-[(2-cyanopyrimidin-4-yl)amino]-N-[(1S)-2-(dimethylamino)-1-phenylethyl]-6,6-dimethyl-4,6-dihydropyrrolo[3,4-c]pyrazole-5(1H)-carboxamide]
19 | 22 | CN(C)C[C@@H](NC(=O)N1Cc2c(Nc3ncnc4sccc34)n[nH]c2C1(C)C)c1ccccc1 [Example 61, N-[(1S)-2-(dimethylamino)-1-phenylethyl]-6,6-dimethyl-3-(thieno[2,3-d]pyrimidin-4-ylamino)-4,6-dihydropyrrolo[3,4-c]pyrazole-5(1H)-carboxamide]
15 | 15 | Cc1cc2c(Nc3n[nH]c4c3CN(C(=O)N[C@H](CN(C)C)c3ccccc3)C4(C)C)ncnc2s1 [Example 62, N-[(1S)-2-(dimethylamino)-1-phenylethyl]-6,6-dimethyl-3-[(6-methylthieno[2,3-d]pyrimidin-4-yl)amino]-4,6-dihydropyrrolo[3,4-c]pyrazole-5(1H)-carboxamide]
< 3.9 | 3 | CN(C)C[C@@H](NC(=O)N1Cc2c(Nc3nc(C#N)nc4ccccc34)n[nH]c2C1(C)C)c1ccccc1 [Example 64, 3-[(2-cyanoquinazolin-4-yl)amino]-N-[(1S)-2-(dimethylamino)-1-phenylethyl]-6,6-dimethyl-4,6-dihydropyrrolo[3,4-c]pyrazole-5(1H)-carboxamide]
67.1 | 680 | Cc1nccc(Nc2n[nH]c3c2CN(C(=O)N[C@H](CN(C)C)c2ccccc2)C3(C)C)n1 [Example 65, N-[(1S)-2-(dimethylamino)-1-phenylethyl]-6,6-dimethyl-3-[(2-methylpyrimidin-4-yl)amino]-4,6-dihydropyrrolo[3,4-c]pyrazole-5(1H)-carboxamide]
< 3.9 | 170 | COc1ncc(F)c(Nc2n[nH]c3c2CN(C(=O)N[C@H](CN(C)C)c2ccccc2)C3(C)C)n1 [Example 66, N-[(1S)-2-(dimethylamino)-1-phenylethyl]-3-[(5-fluoro-2-methoxypyrimidin-4-yl)amino]-6,6-dimethyl-4,6-dihydropyrrolo[3,4-c]pyrazole-5(1H)-carboxamide]
20 | 280 | CN(C)C[C@@H](NC(=O)N1Cc2c(Nc3ncncc3F)n[nH]c2C1(C)C)c1ccccc1 [Example 67, N-[(1S)-2-(dimethylamino)-1-phenylethyl]-3-[(5-fluoropyrimidin-4-yl)amino]-6,6-dimethyl-4,6-dihydropyrrolo[3,4-c]pyrazole-5(1H)-carboxamide]
3 | 1.9 | Cc1nc(Nc2n[nH]c3c2CN(C(=O)O[C@H](CN(C)C)c2ccccc2)C3(C)C)c2ccsc2n1 [Example 69, (1S)-2-(dimethylamino)-1-phenylethyl 6,6-dimethyl-3-[(2-methylthieno[2,3-d]pyrimidin-4-yl)amino]-4,6-dihydropyrrolo[3,4-c]pyrazole-5(1H)-carboxylate]
1.9 | 8.8 | CN(C)C[C@@H](OC(=O)N1Cc2c(Nc3ccnc(C#N)n3)n[nH]c2C1(C)C)c1ccccc1 [Example 70, (1S)-2-(dimethylamino)-1-phenylethyl 3-[(2-cyanopyrimidin-4-yl)amino]-6,6-dimethyl-4,6-dihydropyrrolo [3,4-c]pyrazole-5(1H)-carboxylate]
4.4 | 16 | CCOc1ncc(F)c(Nc2n[nH]c3c2CN(C(=O)O[C@H](CN(C)C)c2ccccc2)C3(C)C)n1 [Example 72, (1S)-2-(dimethylamino)-1-phenylethyl 3-[(2-ethoxy-5-fluoropyrimidin-4-yl)amino]-6,6-dimethyl-4,6-dihydro-pyrrolo[3,4-c]pyrazole-5(1H)-carboxylate]
< 3.9 | 1.6 | Cc1nc(Nc2n[nH]c3c2CN(C(=O)O[C@H](CN(C)C)c2ccccc2)C3(C)C)c2sccc2n1 [Example 73, (1S)-2-(dimethylamino)-1-phenylethyl 6,6-dimethyl-3-[(2-methylthieno[3,2-d]pyrimidin-4-yl)amino]-4,6-dihydropyrrolo[3,4-c]pyrazole-5(1H)-carboxylate]
< 3.9 | 3.6 | CN(C)C[C@@H](OC(=O)N1Cc2c(Nc3nc(C#N)nc4ccccc34)n[nH]c2C1(C)C)c1ccccc1 [Example 74, (1S)-2-(dimethylamino)-1-phenylethyl 3-[(2-cyanoquinazolin-4-yl)amino]-6,6-dimethyl-4,6-dihydropyrrolo[3,4-c]pyrazole-5(1H)-carboxylate]
< 3.9 | 5.2 | CN(C)C[C@@H](OC(=O)N1Cc2c(Nc3ncnc4sccc34)n[nH]c2C1(C)C)c1ccccc1 [Example 75, (1S)-2-(dimethylamino)-1-phenylethyl 6,6-dimethyl-3-(thieno[2,3-d]pyrimidin-4-ylamino)-4,6-dihydropyrrolo[3,4-c]pyrazole-5(1H)-carboxylate]
< 3.9 | 8.3 | CN(C)C[C@@H](OC(=O)N1Cc2c(Nc3ccnc(C(F)(F)F)n3)n[nH]c2C1(C)C)c1ccccc1 [Example 76, (1S)-2-(dimethylamino)-1-phenylethyl 6,6-dimethyl-3-{[2-(trifluoromethyl)pyrimidin-4-yl]amino}-4,6-dihydropyrrolo[3,4-c]pyrazole-5(1H)-carboxylate]
69 | 93 | Cc1ncnc(Nc2n[nH]c3c2CN(C(=O)O[C@H](CN(C)C)c2ccccc2)C3(C)C)c1F [Example 77, (1S)-2-(dimethylamino)-1-phenylethyl 3-[(5-fluoro-6-methylpyrimidin-4-yl)amino]-6,6-dimethyl-4,6-dihydropyrrolo[3,4-c]pyrazole-5(1H)-carboxylate]
> 4000 | 330 | CN(C)C[C@@H](OC(=O)N1Cc2c(Nc3ncnc4c3ncn4C)n[nH]c2C1(C)C)c1ccccc1 [Example 78, (1S)-2-(dimethylamino)-1-phenylethyl 6,6-dimethyl-3-[(9-methyl-9H-purin-6-yl)amino]-4,6-dihydropyrrolo[3,4-c]pyrazole-5(1H)-carboxylate]
< 3.9 | 39 | COc1ncc(F)c(Nc2n[nH]c3c2CN(C(=O)O[C@H](CN(C)C)c2ccccc2)C3(C)C)n1 [Example 79, (1S)-2-(dimethylamino)-1-phenylethyl 3-[(5-fluoro-2-methoxypyrimidin-4-yl)amino]-6,6-dimethyl-4,6-dihydropyrrolo[3,4-c]pyrazole-5(1H)-carboxylate]
20 | 120 | CN(C)C[C@@H](OC(=O)N1Cc2c(Nc3ncncc3F)n[nH]c2C1(C)C)c1ccccc1 [Example 80, (1S)-2-(dimethylamino)-1-phenylethyl 3-[(5-fluoropyrimidin-4-yl)amino]-6,6-dimethyl-4,6-dihydropyrrolo[3,4-c]pyrazole-5(1H)-carboxylate]
84 | 58 | CN(C)C[C@@H](NC(=O)N1Cc2c(Nc3ncnc4ccoc34)n[nH]c2C1(C)C)c1ccccc1 [Example 83, N-[(1S)-2-(dimethylamino)-1-phenylethyl]-3-(furo[3,2-d]pyrimidin-4-ylamino)-6,6-dimethyl-4,6-dihydropyrrolo[3,4-c]pyrazole-5(1H)-carboxamide]

Compound | EC50 [1] [nM] | Ki [2] [nM]
CN(C)C[C@@H](OC(=O)N1Cc2c(Nc3ncnc4ccsc34)n[nH]c2C1(C)C)c1ccccc1 [Example 68, (1S)-2-(dimethylamino)-1-phenylethyl 6,6-dimethyl-3-(thieno[3,2-d]pyrimidin-4-ylamino)-4,6-dihydropyrrolo[3,4-c]pyrazole-5(1H)-carboxylate] | 20 | 6.7
